Laboratory results from patent US20260166150A1, “CRYSTAL FORM OF NK3R ANTAGONIST, AND PREPARATION METHOD THEREFOR AND USE THEREOF” (CHANGCHUN GENESCIENCE PHARMACEUTICAL CO., LTD., priority 2022, published 2026).

Experiments:
human NK-3 receptor = molecular target: T1, human NK-3 receptor (Homo sapiens, UniProt P29371); assay: Antagonistic activity on human NK-3 receptor, FLIPR calcium assay in stably transfected human NK-3R/HEK293 cells; type: cell-based
T1 construct: expressed in transfected cells; host or cells: HEK293 (stably transfected human NK-3R/HEK293)
T1 sequence (P29371 1-465): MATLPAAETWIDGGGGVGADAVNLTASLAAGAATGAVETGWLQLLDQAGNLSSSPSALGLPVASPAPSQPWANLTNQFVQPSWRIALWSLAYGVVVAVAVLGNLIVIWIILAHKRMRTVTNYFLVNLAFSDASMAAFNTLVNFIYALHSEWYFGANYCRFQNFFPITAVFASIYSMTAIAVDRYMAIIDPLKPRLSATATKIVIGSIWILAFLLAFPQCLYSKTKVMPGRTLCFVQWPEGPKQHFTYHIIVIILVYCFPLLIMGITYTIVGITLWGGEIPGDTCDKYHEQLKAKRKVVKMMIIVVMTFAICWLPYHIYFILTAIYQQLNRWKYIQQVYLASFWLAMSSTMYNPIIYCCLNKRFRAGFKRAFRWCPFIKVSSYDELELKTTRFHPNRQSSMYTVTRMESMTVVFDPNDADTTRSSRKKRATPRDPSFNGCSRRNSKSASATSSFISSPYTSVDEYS

[1] = Solid-state stability evaluation (open storage, XRPD and HPLC); type: physicochemical
Experimental: Waters H-Class ultra performance liquid chromatograph is used to collect solubility and purity data of the items.
An appropriate amount of sample was weighed, kept open at 60° C. for 1 day, as well as kept open at 25° C./60% RH and kept open at 40° C./75% RH for 1 week and 4 weeks respectively. Then, the sample was characterized by XRPD and HPLC to detect changes in the crystal form and chemical purity.

[2] = DVS hygroscopicity test at 25° C.; type: physicochemical
Experimental: • DVS curve is collected on DVS Intrinsic of SMS (Surface Measurement Systems) Relative humidity at 25° C. is calibrated based on deliquescent points of LiCl, Mg(NO3)2, and KCl. • Temperature: 25° C.; • Sample amount: 10-20 mg; • Protecting gas and flow rate: N2, 200 mL/min; • dm/dt: 0.002%/min; • Minimum dm/dt equilibration time: 10 min; • Maximum equilibration time: 180 min; • RH range: 0% RH-95% RH-0% RH; • RH gradient: 10% RH (0% RH-90% RH & 90% RH-0% RH); 5% RH (90% RH-95% RH & 95% RH-90% RH)

Row | NK-3 receptor antagonism (in words) (human NK-3 receptor; conclusion from IC50 data) | IC50 (human NK-3 receptor; human NK-3R/HEK293 cells, agonist Neurokinin B, FLIPR) | HPLC Relative purity % ([1]; 25° C./60% RH, 1 week, open) | HPLC purity Area % ([1]; 25° C./60% RH, 1 week, open) | HPLC Relative purity % ([1]; 25° C./60% RH, 4 weeks, open) | HPLC purity Area % ([1]; 25° C./60% RH, 4 weeks, open) | HPLC Relative purity % ([1]; 40° C./75% RH, 1 week, open) | HPLC purity Area % ([1]; 40° C./75% RH, 1 week, open) | HPLC Relative purity % ([1]; 40° C./75% RH, 4 weeks, open) | HPLC purity Area % ([1]; 40° C./75% RH, 4 weeks, open) | change of purity after storage ([1]; 60° C. 1 day, 25° C./60% RH and 40° C./75% RH, 1 week and 4 weeks, open) | HPLC Relative purity % ([1]; 60° C., 1 day, open) | HPLC purity Area % ([1]; 60° C., 1 day, open) | physicochemical stability (in words) ([1]; all evaluated storage conditions) | moisture adsorption ([2]; 25° C./80% RH, DVS) | hygroscopicity (in words) ([2]; DVS, 25° C.) | crystal form before and after DVS testing (XRPD) ([2]; XRPD before and after DVS) | SMILES
1 | potent NK-3 receptor antagonist | 12.1 nM | – | – | – | – | – | – | – | – | – | – | – | – | – | – | – | Cc1nsc(-c2nc(N3CCCC3=O)c3n2CCN(C(=O)c2ccc(F)cc2)[C@@H]3C)n1 [Compound represented by formula (I), (R)-1-(7-(4-fluorobenzoyl)-8-methyl-3-(3-methyl-1,2,4-thiadiazol-5-yl)-5,6,7,8-tetrahydroimidazo[1,5-a]pyrazin-1-yl)pyrrolidin-2-one]
2 | – | – | 99.9% | 99.48% | 99.9% | 99.45% | 99.9% | 99.49% | 99.9% | 99.49% | < 0.2 %, area % | 99.9% | 99.49% | good physicochemical stability | about 0.15% | almost non-hygroscopic | did not change in the crystal form | Cc1nsc(-c2nc(N3CCCC3=O)c3n2CCN(C(=O)c2ccc(F)cc2)[C@@H]3C)n1 [Crystal form A of free base, (R)-1-(7-(4-fluorobenzoyl)-8-methyl-3-(3-methyl-1,2,4-thiadiazol-5-yl)-5,6,7,8-tetrahydroimidazo[1,5-a]pyrazin-1-yl)pyrrolidin-2-one]
